Source: ChEMBL document CHEMBL1201862, “PubChem BioAssay data set” (2004)
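How tested: cells in 96-well plates exposed to compound for 48 hours at five concentrations. GI50 is the concentration that inhibits growth by half.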 Calls of active or inactive are those of the source. Cut-off read from the data, not from the text of the source: active = GI50 up to about 1.1 µM and inactive = higher.

Assays:
Test in all cases: NCI-60 cell line screen, 48 h
UACC-62 = test system: UACC-62
HCT-116 = test system: HCT-116
MDA-MB-435 = test system: MDA-MB-435
SF-539 = test system: SF-539
SN12C = test system: SN12C
EKVX = test system: EKVX
SK-MEL-2 = test system: SK-MEL-2
U-251 = test system: U-251
A549 = test system: A549
HL-60 = test system: HL-60
SF-268 = test system: SF-268
MDA-N = test system: MDA-N
NCI-H226 = test system: NCI-H226
IGROV-1 = test system: IGROV-1
SK-OV-3 = test system: SK-OV-3
SK-MEL-5 = test system: SK-MEL-5
SNB-75 = test system: SNB-75
UO-31 = test system: UO-31
LOX IMVI = test system: LOX IMVI
KM12 = test system: KM12

SMILES	GI50 (UACC-62)	GI50 (HCT-116)	GI50 (MDA-MB-435)	GI50 (SF-539)	GI50 (SN12C)	GI50 (EKVX)	GI50 (SK-MEL-2)	GI50 (U-251)	GI50 (A549)	GI50 (HL-60)	GI50 (SF-268)	GI50 (MDA-N)	GI50 (NCI-H226)	GI50 (IGROV-1)	GI50 (SK-OV-3)	GI50 (SK-MEL-5)	GI50 (SNB-75)	GI50 (UO-31)	GI50 (LOX IMVI)	GI50 (KM12)
CC1(C)Oc2ccc3c(=O)cc(-c4cccs4)oc3c2C1C(=O)O (configuration not stated)	> 10 µM (inactive)	> 100 µM (inactive)	> 100 µM (inactive)	> 100 µM (inactive)	> 100 µM (inactive)	> 100 µM (inactive)	> 100 µM (inactive)	> 100 µM (inactive)	> 100 µM (inactive)	> 100 µM (inactive)	> 100 µM (inactive)	> 100 µM (inactive)	> 100 µM (inactive)	> 100 µM (inactive)	> 100 µM (inactive)	> 100 µM (inactive)	–	–	–	–
C1CNCCN2CCCNCCN(C1)CC2	> 100 µM (inactive)	> 100 µM (inactive)	> 100 µM (inactive)	> 100 µM (inactive)	> 100 µM (inactive)	> 100 µM (inactive)	> 100 µM (inactive)	> 100 µM (inactive)	> 100 µM (inactive)	–	> 100 µM (inactive)	> 100 µM (inactive)	> 100 µM (inactive)	> 100 µM (inactive)	> 100 µM (inactive)	> 100 µM (inactive)	> 100 µM (inactive)	> 100 µM (inactive)	> 100 µM (inactive)	> 100 µM (inactive)
CC(C)[Si](OC1=C(C(=O)N(C)c2ccccc2Cl)CCC1)(C(C)C)C(C)C	–	19.5 µM (inactive)	19 µM (inactive)	22.9 µM (inactive)	16.7 µM (inactive)	16.9 µM (inactive)	–	16 µM (inactive)	15 µM (inactive)	–	18.5 µM (inactive)	19.8 µM (inactive)	21.1 µM (inactive)	18.3 µM (inactive)	16.5 µM (inactive)	24.8 µM (inactive)	13.3 µM (inactive)	15.8 µM (inactive)	19.2 µM (inactive)	20.6 µM (inactive)
O=C(Cc1nc2ncccc2[nH]c1=O)c1c[nH]c2ccccc12	16.8 µM (inactive)	22.2 µM (inactive)	15.9 µM (inactive)	16.6 µM (inactive)	18.2 µM (inactive)	21.4 µM (inactive)	14.9 µM (inactive)	17.7 µM (inactive)	20 µM (inactive)	32.1 µM (inactive)	14.9 µM (inactive)	19.7 µM (inactive)	–	17.3 µM (inactive)	16.3 µM (inactive)	23.1 µM (inactive)	–	17.7 µM (inactive)	20.7 µM (inactive)	17.5 µM (inactive)
Cc1cc2c(s1)C(N)CC2=O (configuration not stated)	> 100 µM (inactive)	> 100 µM (inactive)	> 100 µM (inactive)	> 100 µM (inactive)	> 100 µM (inactive)	> 100 µM (inactive)	> 100 µM (inactive)	> 100 µM (inactive)	> 100 µM (inactive)	> 100 µM (inactive)	> 100 µM (inactive)	> 100 µM (inactive)	–	> 100 µM (inactive)	> 100 µM (inactive)	> 100 µM (inactive)	> 100 µM (inactive)	> 100 µM (inactive)	–	> 100 µM (inactive)
CC1(C)C2CC3C(C)(C2)C31c1cc(Cl)ccc1N (configuration not stated)	15.2 µM (inactive)	2.23 µM (inactive)	12.6 µM (inactive)	15.5 µM (inactive)	14.4 µM (inactive)	13.7 µM (inactive)	15 µM (inactive)	15.2 µM (inactive)	11.9 µM (inactive)	–	13.8 µM (inactive)	12.2 µM (inactive)	17.8 µM (inactive)	14.5 µM (inactive)	15.5 µM (inactive)	14.2 µM (inactive)	11.9 µM (inactive)	13.9 µM (inactive)	13.6 µM (inactive)	14.4 µM (inactive)
Cc1nc2n(c1/C=C1/C(=O)Nc3ccccc31)CCS2	24.2 µM (inactive)	33.6 µM (inactive)	14.8 µM (inactive)	41.5 µM (inactive)	56.1 µM (inactive)	46.7 µM (inactive)	5.74 µM (inactive)	42.4 µM (inactive)	51.9 µM (inactive)	32.1 µM (inactive)	81.8 µM (inactive)	17.6 µM (inactive)	–	91 µM (inactive)	68.2 µM (inactive)	31.5 µM (inactive)	17.3 µM (inactive)	27.5 µM (inactive)	72.4 µM (inactive)	31.1 µM (inactive)
c1ccc(-c2cccc(-c3ccccn3)n2)nc1 [TERPYRIDINE]	0.736 µM (active)	0.344 µM (active)	0.483 µM (active)	0.51 µM (active)	0.631 µM (active)	0.476 µM (active)	1.17 µM (inactive)	0.548 µM (active)	0.384 µM (active)	0.173 µM (active)	0.495 µM (active)	0.441 µM (active)	–	0.48 µM (active)	0.783 µM (active)	0.246 µM (active)	1.57 µM (inactive)	0.197 µM (active)	–	0.507 µM (active)
N#Cc1nc(C2CC2)oc1N	> 100 µM (inactive)	> 100 µM (inactive)	> 100 µM (inactive)	> 100 µM (inactive)	> 100 µM (inactive)	> 100 µM (inactive)	> 100 µM (inactive)	> 100 µM (inactive)	> 100 µM (inactive)	–	> 100 µM (inactive)	> 100 µM (inactive)	> 100 µM (inactive)	> 100 µM (inactive)	> 100 µM (inactive)	–	> 100 µM (inactive)	–	> 100 µM (inactive)	25.7 µM (inactive)
O=C(/C=C/c1ccc(-c2ccccc2)cc1)NCc1ccc(C(=O)NCc2ccccc2)cc1	> 100 µM (inactive)	> 100 µM (inactive)	> 100 µM (inactive)	> 100 µM (inactive)	> 100 µM (inactive)	> 100 µM (inactive)	> 100 µM (inactive)	> 100 µM (inactive)	> 100 µM (inactive)	–	> 100 µM (inactive)	> 100 µM (inactive)	> 100 µM (inactive)	> 100 µM (inactive)	> 100 µM (inactive)	> 100 µM (inactive)	> 100 µM (inactive)	> 100 µM (inactive)	> 100 µM (inactive)	> 100 µM (inactive)
CCCc1cc(=O)oc2c(C=O)c(O)cc(O)c12	19.8 µM (inactive)	21.8 µM (inactive)	21.8 µM (inactive)	26.7 µM (inactive)	24.9 µM (inactive)	21.3 µM (inactive)	18.2 µM (inactive)	22.5 µM (inactive)	31.7 µM (inactive)	18.3 µM (inactive)	26.6 µM (inactive)	22.3 µM (inactive)	–	30.9 µM (inactive)	27.8 µM (inactive)	17.4 µM (inactive)	11.3 µM (inactive)	22.8 µM (inactive)	20 µM (inactive)	22.7 µM (inactive)
Cc1cn(C2CC(N=[N+]=[N-])C(CO)O2)c(=O)n(CCCCBr)c1=O (configuration not stated)	> 100 µM (inactive)	> 100 µM (inactive)	80.4 µM (inactive)	> 100 µM (inactive)	59.3 µM (inactive)	> 100 µM (inactive)	61 µM (inactive)	18.8 µM (inactive)	> 100 µM (inactive)	–	> 100 µM (inactive)	> 100 µM (inactive)	> 100 µM (inactive)	> 100 µM (inactive)	> 100 µM (inactive)	–	63.2 µM (inactive)	> 100 µM (inactive)	89.7 µM (inactive)	> 100 µM (inactive)
O=S(=O)(O)c1cccc2ccc(O)c(/N=N\c3ccc(S(=O)(=O)c4ccc(/N=N/c5c(O)ccc6cccc(S(=O)(=O)O)c56)cc4)cc3)c12	> 100 µM (inactive)	> 100 µM (inactive)	> 100 µM (inactive)	–	> 100 µM (inactive)	> 100 µM (inactive)	> 100 µM (inactive)	> 100 µM (inactive)	> 100 µM (inactive)	< 0.01 µM (active)	> 100 µM (inactive)	> 100 µM (inactive)	> 100 µM (inactive)	81.5 µM (inactive)	> 100 µM (inactive)	> 100 µM (inactive)	65.5 µM (inactive)	63.4 µM (inactive)	–	67.3 µM (inactive)
COC(=O)c1cc(=O)n(-c2ccc3nn(C)nc3c2)cc1C(=O)OC	> 100 µM (inactive)	> 100 µM (inactive)	> 100 µM (inactive)	> 100 µM (inactive)	> 100 µM (inactive)	> 100 µM (inactive)	> 100 µM (inactive)	> 100 µM (inactive)	> 100 µM (inactive)	–	> 100 µM (inactive)	> 100 µM (inactive)	> 100 µM (inactive)	> 100 µM (inactive)	> 100 µM (inactive)	> 100 µM (inactive)	> 100 µM (inactive)	> 100 µM (inactive)	–	> 100 µM (inactive)
O=Cc1c(-c2ccccc2)nc2ccccc2c1O	55.8 µM (inactive)	41.9 µM (inactive)	21.3 µM (inactive)	45.6 µM (inactive)	73.8 µM (inactive)	85.1 µM (inactive)	> 100 µM (inactive)	74.3 µM (inactive)	54 µM (inactive)	–	59.3 µM (inactive)	15.6 µM (inactive)	> 100 µM (inactive)	53.8 µM (inactive)	> 100 µM (inactive)	17.9 µM (inactive)	34.5 µM (inactive)	85.7 µM (inactive)	42.2 µM (inactive)	30.3 µM (inactive)
